Holding throughout (test): growth of human tumour cells (NCI), 48 h
Assay [1] deals with PC-3 prostate.
For assay [2], the system named is SR leukemia.
Assay [3] deals with EKVX NSCLC.
In assay [4] the test system is SK-MEL-28 melanoma.
For assay [5], the system named is MCF7 breast.
Assay [6] deals with MALME-3M melanoma.
In assay [7] the test system is SNB-19 CNS.
The subject of assay [8] is HS 578T breast.
For assay [9], the system named is 786-0 renal.
The subject of assay [10] is NCI-H226 lung.

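Protocol summary: plate cells (96-well), add compound at 5 concentrations, incubate 48 h, interpolate endpoints linearly. GI50: concentration for 50% inhibition of growth. TGI denotes the concentration required for complete inhibition of growth.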

`COc1ccc(Cl)cc1N1C(=O)C(Cl)=C(Nc2cccc(O)c2)C1=O`: the GI50 was 17.8 µM in assay [1]; 13.8 µM in [2]; 32.8 µM in [3]; 24.4 µM in assay [4]; 19.2 µM in [5]; 14.5 µM in assay [6]. Moreover, the values for the GI50 in [7], in assay [8] and in assay [9] were 30.2 µM, 15.8 µM and 21.1 µM, respectively. Moreover, the TGI in [1] was 38.6 µM; in assay [2], 54.5 µM; in assay [3], greater than 100 µM; in [4], 83.8 µM; in assay [5], 41.5 µM; in assay [6], 50.4 µM. The values for the TGI in assay [7], in [8] and in assay [9] were greater than 100 µM, 46.2 µM and 60.2 µM, respectively.

In the case of `Clc1nc(Cl)c2ncn(C/C=C\Cn3cnc4c(Cl)nc(Cl)nc43)c2n1`, the GI50 in assay [1] is 2.05 µM; in assay [3] it was 1.97 µM; in assay [4] it was 1.94 µM; in [5] it was 1.39 µM; in assay [6], 2.34 µM; in assay [7], 3.13 µM. The GI50 in [8] was 3.01 µM; in assay [9], 2.6 µM; in assay [10] it was 2.53 µM. In addition, the TGI in [1] was found to be 4.54 µM; in assay [3] it was 3.76 µM; in assay [4], 3.68 µM; in assay [5], 3.21 µM; in assay [6], 4.26 µM; in assay [7], 10.1 µM. The TGI in [8] was determined as 6.12 µM; in assay [9], 6.88 µM; in assay [10], 6.23 µM.

On to `CC1(C)OC2C(CO)OC(n3ccc(=O)[nH]c3=O)C2O1` (stereo not drawn), for which the TGI in assay [1], in [2], in assay [3], in [4], in [5] and in [7] was greater than 100 µM in each case. Moreover, the TGI in [8], in [9] and in assay [10] was greater than 100 µM throughout.

Take `OCCN(CO)CN(CN(CO)CCO)c1nc(N(CN(CO)CCO)CN(CO)CCO)nc(N(CN(CO)CCO)CN(CO)CCO)n1`: the GI50 in assay [1] was 1.48 ng/mL; in assay [2], 0.742 ng/mL; in [3], 1.42 ng/mL; in assay [4] it was 1.05 ng/mL; in assay [5] it was 0.55 ng/mL; in assay [7] it was 2.32 ng/mL. The figures for the GI50 in assay [8], in assay [9] and in [10] were 1.74 ng/mL, 1.49 ng/mL and 1.25 ng/mL, respectively. Further, the TGI came out at 4.46 ng/mL in [1]; 2.62 ng/mL in [2]; 5.03 ng/mL in [3]; 1.88 ng/mL in assay [4]; 0.901 ng/mL in [5]; 744 ng/mL in assay [7]. Moreover, the TGI came out at 45.1 ng/mL in [8], 4.6 ng/mL in assay [9] and 2.72 ng/mL in assay [10].

For the compound `Nc1cc(N)c2nc(-c3ccccc3)c(Nc3ccc(F)cc3)nc2c1`, the GI50 is 11.7 µM in [1]; 5.36 µM in assay [2]; 12 µM in assay [3]; 20.4 µM in assay [4]; 12.5 µM in [5]; 22.1 µM in assay [7]. Besides, the GI50 was 19.1 µM in [8], 17.4 µM in assay [9] and 17.9 µM in assay [10]. In addition, the TGI was greater than 100 µM in [1]; greater than 100 µM in assay [2]; 30 µM in assay [3]; 39.3 µM in [4]; greater than 100 µM in assay [5]; 40 µM in assay [7]. Also, the TGI in assay [8] was 58.8 µM; in assay [9], 54.3 µM; in assay [10], 47.5 µM.

For `CCOC(=O)c1sc(=S)c2c(C(=O)c3ccccc3)c(C(=O)c3ccccc3)sc2c1C(=O)OCC`, the GI50 was 3.61 µM in assay [1]; 2.58 µM in assay [2]; 4.94 µM in assay [3]; 25.3 µM in [4]; 3.74 µM in assay [5]; 8.87 µM in assay [7]. In addition, the GI50 is 3.54 µM in assay [8], 6.8 µM in assay [9] and 6.68 µM in [10]. Also, the TGI in [1] was 35.4 µM; in [2] it was 5.98 µM; in assay [3], 52.2 µM; in assay [4], greater than 100 µM; in assay [5], 26.6 µM; in assay [7], greater than 100 µM. Moreover, the TGI is 61.1 µM in [8], greater than 100 µM in assay [9] and greater than 100 µM in assay [10].

For the compound `CC1CCC2(OC1)OC1CC3C4CC=C5CC(OC6OC(CO)C(OC7OC(C)C(OC8OC(C)C(O)C(O)C8O)C(O)C7O)C(O)C6OC6OC(C)C(O)C(O)C6O)CCC5(C)C4CCC3(C)C1C2C` (stereo not drawn), the TGI is 2.08 µM in [1]; 2.1 µM in assay [3]; 1.85 µM in assay [4]; 3.25 µM in [5]; 1.5 µM in assay [6]; 2.4 µM in [7]. In addition, the TGI in [8] is 1.77 µM; in assay [9], 2.29 µM; in assay [10], 2.86 µM.
